One block for each compound: values may come before it.
Experiments:
[1] = target: Adenosine deaminase (Bos taurus) (UniProt P56658); test: Binding affinity towards adenosine deaminase
Tumor Cell line = test: The compound was tested for inhibitory activity against panel of human tumor cell lines; Range = 0.08-14.02 uM; assay type: functional, cell-based
[2] = system: Human immunodeficiency virus; test: The compound was tested for anti-HIV activity; Range = 5.0-15.0 uM; assay type: functional; settings: Human immunodeficiency virus 1; read-out: ED50 (the source's name)

Sequence of Adenosine deaminase (Bos taurus) (P56658 whole entry, looked up): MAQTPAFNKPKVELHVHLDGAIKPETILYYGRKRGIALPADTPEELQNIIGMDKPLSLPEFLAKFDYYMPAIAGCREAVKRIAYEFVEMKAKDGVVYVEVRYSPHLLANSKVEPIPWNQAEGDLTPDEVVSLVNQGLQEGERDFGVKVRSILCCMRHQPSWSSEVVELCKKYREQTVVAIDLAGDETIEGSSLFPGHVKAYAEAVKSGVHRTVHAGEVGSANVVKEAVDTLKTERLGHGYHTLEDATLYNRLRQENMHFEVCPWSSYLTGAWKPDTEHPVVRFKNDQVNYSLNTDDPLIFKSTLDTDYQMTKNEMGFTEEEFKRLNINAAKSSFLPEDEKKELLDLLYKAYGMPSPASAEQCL

Ki [1]: 85 µM
Compound: Nc1ncnc2c1ncn2[C@H]1CN[C@@H](CO)C1

IC50 (Tumor Cell line): 0.08 µM
Compound: Cc1cn([C@@H]2C[C@H](CO)N(O)C2)c(=O)[nH]c1=O

EC50 [2]: 5 µM
Compound: Nc1ncnc2c1ncn2[C@H]1CO[C@@H](CO)C1
